Article PMC11097168, “Laburnicotides A–F: Acyclic N-Acetyl Oligopeptides from the Nematode-Cyst-Associated Fungus Laburnicola nematophila” (ACS Omega, 2024)
In brackets after ≈: the same amount, converted by molar mass. Read-outs that look alike come from different tables or passages of the source.

Legend:
[1] = system: Acinetobacter baumanii; experiment: Antimicrobial activity (MIC), serial dilution; type: cell-based
Protocol: (§1) The evaluation of antimicrobial efficacy was conducted through a serial dilution method to determine the minimum inhibitory concentrations (MICs) of isolated compounds against various Gram-positive bacteria (Bacillus subtilis (B. subtilis), Mycobacterium smegmatis (M. smegmatis), and Staphylococcus aureus), Gram-negative bacteria (Acinetobacter baumannii (A. baumannii), Chromobacterium violaceum, Escherichia coli, and Pseudomonas aeruginosa (P. aeruginosa)), and five fungal species (Candida albicans, Mucor hiemalis, Rhodotorula glutinis, Schizosaccharomyces pombe, and Wickerhamomyces anomalus), utilizing established methodologies.[16],[20],[23],[24] Methanol served as the negative control with a volume of 20 μL, while the choice of positive controls was tailored to the specific organism under investigation. For bacterial strains, oxytetracycline, ciprofloxacin, kanamycin, and gentamicin were employed as references for B. subtilis, A. baumannii, M. smegmatis, and P. aeruginosa, respectively; nystatin was the standard for all fungi. The cytotoxicity of compounds was assessed on L929 mouse fibroblast cells and KB3.1 human endocervical adenocarcinoma cells using an MTT assay. Epothilone B acted as the positive control in these experiments. Additionally, the nematicidal potential was evaluated using Caenorhabditis elegans in a 48-well flat-bottom plate, with compounds tested at concentrations of 100, 50, and 10 μg mL^–1. Samples were dissolved in methanol and added to the wells and then dried using a nitrogen stream. Subsequently, 300 μL of a suspension containing 1,000 nematodes/mL was added to the samples and incubated for 18 h at 23 °C and 150 rpm. Ivermectin, at a concentration of 1 μg mL^–1, served as the positive control, and methanol was used as the negative control. This assay was executed according to the procedures outlined by Phutthacharoen et al.[23]

[2] = system: Staphylococcus aureus; experiment: Antimicrobial activity (MIC), serial dilution; type: cell-based
Protocol: as §1, with “The biological activity of isolated compounds (1, 2, 4, and 5) was assessed against different fungi, bacteria, cell lines, Caenorhabditis elegans, and Chikungunya virus. The evaluation” for “The evaluation”

[3] = system: Escherichia coli; experiment: Antimicrobial activity (MIC), serial dilution; type: cell-based
Protocol: as §1, with “The biological activity of isolated compounds (1, 2, 4, and 5) was assessed against different fungi, bacteria, cell lines, Caenorhabditis elegans, and Chikungunya virus. The evaluation” for “The evaluation”

[4] = system: Pseudomonas aeruginosa; experiment: Antimicrobial activity (MIC), serial dilution; type: cell-based
Protocol: as §1, with “The biological activity of isolated compounds (1, 2, 4, and 5) was assessed against different fungi, bacteria, cell lines, Caenorhabditis elegans, and Chikungunya virus. The evaluation” for “The evaluation”

[5] = system: Chromobacterium violaceum; experiment: Antimicrobial activity (MIC), serial dilution; type: cell-based
Protocol: as §1, with “The biological activity of isolated compounds (1, 2, 4, and 5) was assessed against different fungi, bacteria, cell lines, Caenorhabditis elegans, and Chikungunya virus. The evaluation” for “The evaluation”

[6] = system: Bacillus subtilis; experiment: Antimicrobial activity (MIC), serial dilution; type: cell-based
Protocol: as §1

[7] = system: Schizosaccharomyces pombe; experiment: Antimicrobial activity (MIC), serial dilution; type: cell-based
Protocol: as §1, with “The biological activity of isolated compounds (1, 2, 4, and 5) was assessed against different fungi, bacteria, cell lines, Caenorhabditis elegans, and Chikungunya virus. The evaluation” for “The evaluation”

[8] = system: Candida albicans; experiment: Antimicrobial activity (MIC), serial dilution; type: cell-based
Protocol: as §1, with “The biological activity of isolated compounds (1, 2, 4, and 5) was assessed against different fungi, bacteria, cell lines, Caenorhabditis elegans, and Chikungunya virus. The evaluation” for “The evaluation”

[9] = system: Rhodotorula glutinis; experiment: Antimicrobial activity (MIC), serial dilution; type: cell-based
Protocol: as §1, with “The biological activity of isolated compounds (1, 2, 4, and 5) was assessed against different fungi, bacteria, cell lines, Caenorhabditis elegans, and Chikungunya virus. The evaluation” for “The evaluation”

[10] = system: Mycobacterium smegmatis; experiment: Antimicrobial activity (MIC), serial dilution; type: cell-based
Protocol: as §1, with “The biological activity of isolated compounds (1, 2, 4, and 5) was assessed against different fungi, bacteria, cell lines, Caenorhabditis elegans, and Chikungunya virus. The evaluation” for “The evaluation”

[11] = system: Pichia anomala; experiment: Antimicrobial activity (MIC), serial dilution; type: cell-based
Protocol: as §1, with “The biological activity of isolated compounds (1, 2, 4, and 5) was assessed against different fungi, bacteria, cell lines, Caenorhabditis elegans, and Chikungunya virus. The evaluation” for “The evaluation”

[12] = system: Mucor hiemails; experiment: Antimicrobial activity (MIC), serial dilution; type: cell-based
Protocol: as §1, with “The biological activity of isolated compounds (1, 2, 4, and 5) was assessed against different fungi, bacteria, cell lines, Caenorhabditis elegans, and Chikungunya virus. The evaluation” for “The evaluation”

[13] = system: L929 mouse fibroblast cells; experiment: Cytotoxicity, MTT assay; type: cell-based; set-up: key: -: No effect on cell lines
Protocol: as §1

[14] = system: KB3.1 human endocervical adenocarcinoma cells; experiment: Cytotoxicity, MTT assay; type: cell-based; set-up: key: -: No effect on cell lines; conditions: Human endocervical adenocarcinoma (KB3.1)
Protocol: as §1

[15] = system: Caenorhabditis elegans; experiment: Nematicidal activity; type: in vivo; conditions: 23 °C, 150 rpm
Protocol: as §1

[16] = read-out: MIC, positive control
[17] = C. elegans N2, 10 µg mL-1, 18 h, < 0: less active than the corresponding negative control
[18] = C. elegans N2, 50 µg mL-1, 18 h, < 0: less active than the corresponding negative control
[19] = C. elegans N2, 100 µg mL-1, 18 h, < 0: less active than the corresponding negative control

Compound | MIC [7] | MIC [2] | MIC [8] | MIC [9] | MIC [10] | MIC [11] | MIC [3] | MIC [4] | MIC [12] | MIC [5] | Cytotoxicity IC50 [13] | Cytotoxicity IC50 [14] | MIC [6] | MIC [1] | Corrected Mortality (%) [15, 17] [%] | Corrected Mortality (%) [15, 18] [%] | Corrected Mortality (%) [15, 19] [%] | also measured
O=C(O)c1cn(C2CC2)c2cc(N3CCNCC3)c(F)cc2c1=O [Ciprofloxacin, reference compound] |  |  |  |  |  |  |  |  |  |  |  |  |  |  |  |  |  | MIC ([1]; Acinetobacter baumannii, read-out: MIC, positive control): 0.52 µg/mL (≈ 1.57 µM)
CNC(C)C1CCC(N)C(OC2C(N)CC(N)C(OC3OCC(C)(O)C(NC)C3O)C2O)O1 (stereo not drawn) [Gentamycin, reference compound] |  |  |  |  |  |  |  |  |  |  |  |  |  |  |  |  |  | MIC [2, 16]: 0.21 µg/mL (≈ 0.44 µM); MIC [3, 16]: 0.42 µg/mL (≈ 0.879 µM); MIC [4, 16]: 0.21 µg/mL (≈ 0.44 µM); MIC [5, 16]: 1.7 µg/mL (≈ 3.56 µM)
CN(C)[C@@H]1C(O)=C(C(N)=O)C(=O)[C@@]2(O)C(O)=C3C(=O)c4c(O)cccc4[C@@](C)(O)[C@H]3[C@H](O)[C@@H]12 [Oxytetracycline, reference compound] |  |  |  |  |  |  |  |  |  |  |  |  |  |  |  |  |  | MIC [6, 16]: 16.6 µg/mL (≈ 36.1 µM)
Ac-D-Trp-D-Ala^1-D-Ala^2-L-Phe [Compound 4] | - (No inhibition up to 67 µg/mL) | - (No inhibition up to 67 µg/mL) | - (No inhibition up to 67 µg/mL) | - (No inhibition up to 67 µg/mL) | - (No inhibition up to 67 µg/mL) | - (No inhibition up to 67 µg/mL) | - (No inhibition up to 67 µg/mL) | - (No inhibition up to 67 µg/mL) | - (No inhibition up to 67 µg/mL) | - (No inhibition up to 67 µg/mL) | - | - | - (No inhibition up to 67 µg/mL) | - (No inhibition up to 67 µg/mL) | 0.7 ± 2.0 | 0.1 ± 2.2 | < 0 | 
Ac-D-Trp-D-Leu-D-Ala [Compound 5] | - (No inhibition up to 67 µg/mL) | - (No inhibition up to 67 µg/mL) | - (No inhibition up to 67 µg/mL) | - (No inhibition up to 67 µg/mL) | - (No inhibition up to 67 µg/mL) | - (No inhibition up to 67 µg/mL) | - (No inhibition up to 67 µg/mL) | - (No inhibition up to 67 µg/mL) | - (No inhibition up to 67 µg/mL) | - (No inhibition up to 67 µg/mL) | - | - | - (No inhibition up to 67 µg/mL) | - (No inhibition up to 67 µg/mL) | < 0 | 0.5 ± 1.1 | < 0 | 
Ac-D-Trp-D-Leu-D-Ala-L-Phe [Compound 2] | - (No inhibition up to 67 µg/mL) | - (No inhibition up to 67 µg/mL) | - (No inhibition up to 67 µg/mL) | - (No inhibition up to 67 µg/mL) | - (No inhibition up to 67 µg/mL) | - (No inhibition up to 67 µg/mL) | - (No inhibition up to 67 µg/mL) | - (No inhibition up to 67 µg/mL) | - (No inhibition up to 67 µg/mL) | - (No inhibition up to 67 µg/mL) | - | - | - (No inhibition up to 67 µg/mL) | - (No inhibition up to 67 µg/mL) | < 0 | < 0 | < 0 | 
Ac-D-Trp-D-Leu^1-D-Leu^2-L-Phe [Compound 1] | - (No inhibition up to 67 µg/mL) | - (No inhibition up to 67 µg/mL) | - (No inhibition up to 67 µg/mL) | - (No inhibition up to 67 µg/mL) | - (No inhibition up to 67 µg/mL) | - (No inhibition up to 67 µg/mL) | - (No inhibition up to 67 µg/mL) | - (No inhibition up to 67 µg/mL) | - (No inhibition up to 67 µg/mL) | - (No inhibition up to 67 µg/mL) | - | - | - (No inhibition up to 67 µg/mL) | - (No inhibition up to 67 µg/mL) | < 0 | < 0 | < 0 | 
Ivermectin [reference compound] |  |  |  |  |  |  |  |  |  |  |  |  |  |  |  |  |  | Corrected Mortality (%) ([15]; C. elegans N2, 1 µg mL-1, 18 h): 96.2 ± 2.7%
